# Measurements taken from patent US20090215921A1, “MODIFIED DIMETHYLACRYLATE MONOMER, METHOD FOR PREPARING THE SAME, AND POLYMERIC DENTAL COMPOSITE” (priority 2008, published 2009).
# Tests used:
# [1] = Viscosity measured using a Brookfield viscosmeter; assay type: physicochemical; settings: monomer
# Procedure: 1. Viscosity is measured using a Brookfield viscosmeter.
# (§1) The modified Bis-GMA obtained in Example 2 and Bis-GMA were subjected to viscosity and water absorption tests.
# [2] = Water absorption for a modified Bis-GMA monomer, Karl Fischer titration; assay type: physicochemical
# Procedure: 2. Water absorption for a modified Bis-GMA monomer is measured according to Karl Fischer titration.
# as §1
Compound,Viscosity [1] [cp],Water absorption [2] [mg/mm^3/week]
"C=C(C)C(=O)OCC(O)COc1ccc(C(C)(C)c2ccc(OCC(O)COC(=O)C(=C)C)cc2)cc1 (stereo not shown) [Bis-GMA, 2,2-bis[4-(2-hydroxyl-3-methacryloyloxy)phenyl] propane]",458400,35
C=C(C)C(=O)OCC(COc1ccc(C(C)(C)c2ccc(OCC(COC(=O)C(=C)C)O[Si](CC)(CC)CC)cc2)cc1)O[Si](CC)(CC)CC (stereo not shown) [Example 2],440,7.4
